Laboratory results published in patent US20230365643A1, “PEPTIDE, AND COSMETIC COMPOSITION AND PHARMACEUTICAL COMPOSITION COMPRISING SAME” (SEOUL NATIONAL UNIVERSITY HOSPITAL, priority 2020, published 2023).
Values after ≈ are worked out from the molar mass of the structure shown. Where a SMILES comes first, the peptide text is derived from it. [ ]: non-standard residue; d: D form.

Assays:
[1] = Determination of solubility; type: physicochemical
Procedure: To 5 mg of each of the peptides synthesized by the above method, a small amount of water or butylene glycol was added to measure solubility.

[2] = Stability in mouse whole blood (LC-QTOF MS); type: in vitro ADME; conditions: peptide 1 mg/ml; 0, 15, 30, 60, 120 minutes; compared to P5 control (FIG. 3)
Procedure: Mouse whole blood was treated with peptide (1 mg/ml) and reacted for 0, 15, 30, 60, and 120 minutes, followed by analyzing the peptides remaining as LC-QTOF MS.

sensitive skin = experiment: Sensitive skin improvement, double-blind application study (lactate test, biopsy); type: in vivo, human; conditions: for proportion of test group improved from sensitive skin to non-sensitive skin: 0.01%, 27 persons per group
From the text: In order to classify patients with sensitive skin, a double-blind organ application study was executed by conducting the lactate puncture test (Contact Dermatitis 2010; 62: 137-49), which is the most widely used and known reliable test for diagnosis of sensitive skin (a total of 54 persons, the peptide of the present invention PSN: GLYYF(SEQ ID NO: 2)-NH2 (APNSN) 0.01% vs control (placebo), 27 persons per application group). From the volunteers who agreed to the biopsy (peptide PSN: GLYYF(SEQ ID NO: 2)-NH2 (APNSN) of the present invention 0.01% vs control material (placebo), 8 persons per application group), the skin tissues at the facial baseline and the skin tissues after 8 weeks application were obtained from total 4 sites (for 2 sites per each) by 2 mm punch. For the obtained skin tissues, quantitative PCR analysis and immunohistochemistry were performed for sensitive skin-related genes and markers including adiponectin. […] Further, at the second visit, it could be seen that 29.6% of the test group was improved from the sensitive skin to the non-sensitive skin. […] There was no significant difference between the above two groups (p=0.327, fisher's exact test). Further, at the 3rd visit, the initial sensitive skin improved to non-sensitive skin in 48.1% of the test group, whereas only 14.8% of the control improved to non-sensitive skin, which is the same as at the 2nd visit. […] Further, since the expression of adiponectin was reduced in the patients having sensitive skin, a change in adiponectin gene expression after APNSN treatment could be an important indicator of sensitivity improvement. Therefore, as a result of confirming the expression of adiponectin, the sub-signaling factor P-AMPK of adiponectin and the sensitivity inducing factor TRPV1 (FIG. 10) through biopsy, the expression adiponectin and P-AMPK was increased after application in the test group containing APNSN, whereas the expression of TRPV1 was decreased. […] On the other hand, there was no statistically significant change in the expression of adiponectin in the control after application of the control material.

C57BL/6 mice = experiment: Hair growth promoting efficacy in mice; type: in vivo, mouse; conditions: lower back skin, once a day, after about 4 weeks; P5N 0.1 mM, P5 0.05 and 0.1 mM, MNX 3% (FIG. 11)
From the text: It is known that all the hairs of a mouse go through a process in which the hair enters the resting phase at 7 to 8 weeks of age and is converted back to the growing phase. Accordingly, the effect of the peptide of the present invention on the growth phase inducing process was confirmed using C57BL/6 mice. Specifically, 3% of minoxidil (MNX), which is commonly used as a treatment for hair loss and hair growth, on the skin of the lower back of the mouse, the existing adiponectin-derived peptide […] NO: 2), […] and 0.1 mM), and the present peptide […] NO: 2)-NH2) were applied at 0.1 mM concentration, respectively, once a day. Thereafter, hair growth was investigated. As a result, in the group treated with the peptide of the present invention as in the positive controls, it was confirmed […], after about 4 weeks, a proportion of the region where hair was grown in the growth phase among the region where hair was first removed is increased (FIG. 11).

[3] = water : butylene glycol mixture, Solvent H2O: BG, mixed solvent
[4] = Solvent BG (butylene glycol), single solvent
[5] = biopsy after application (FIG. 10)

CC(C)C[C@H](NC(=O)CN)C(=O)N[C@@H](Cc1ccc(O)cc1)C(=O)N[C@H](Cc1ccc(O)cc1)C(=O)N[C@@H](Cc1ccccc1)C(=O)O [Peptide P5-3, GLYyF (SEQ ID NO: 2)]
solubility [1, 3]: 3000 µg/mL (≈ 4.53 mM)

CC(C)C[C@@H](NC(=O)CN)C(=O)N[C@@H](Cc1ccc(O)cc1)C(=O)N[C@@H](Cc1ccc(O)cc1)C(=O)N[C@@H](Cc1ccccc1)C(=O)O [Peptide P5-1, GlYYF (SEQ ID NO: 2)]
solubility [1, 4]: 3000 µg/mL (≈ 4.53 mM)

CC(C)C[C@H](N)C(=O)N[C@@H](Cc1ccc(O)cc1)C(=O)N[C@H](Cc1ccc(O)cc1)C(=O)N[C@@H](Cc1ccccc1)C(=O)O [Peptide P4-4, LYyF (SEQ ID NO: 1)] (H-LY[dY]F-OH; N-terminus assumed)
stability (peptides remaining) [2]: improved stability

CC(C)C[C@H](NC(=O)CN)C(=O)N[C@@H](Cc1ccc(O)cc1)C(=O)N[C@@H](Cc1ccc(O)cc1)C(=O)N[C@@H](Cc1ccccc1)C(N)=O [Peptide P5-5, GLYYF (SEQ ID NO: 2)-NH2]
stability (peptides remaining) [2]: improved stability | proportion of test group improved from sensitive skin to non-sensitive skin (sensitive skin; 2nd visit (4 weeks after application)): 29.6% | proportion of test group improved from sensitive skin to non-sensitive skin (sensitive skin; 3rd visit (8 weeks after application)): 48.1% | sensitive skin to non-sensitive skin in lactic acid test (sensitive skin; 2nd and 3rd visit (FIG. 9)): significantly improved | expression of P-AMPK (sensitive skin; [5]): increased | expression of TRPV1 (sensitive skin; [5]): decreased | expression of adiponectin (sensitive skin; [5]): increased | increase of expression of adiponectin compared to before application (sensitive skin; twice a day for 8 weeks, biopsy): more than 4 times | proportion of the region where hair was grown in the growth phase (C57BL/6 mice): increased

CC(C)C[C@@H](N)C(=O)N[C@@H](Cc1ccc(O)cc1)C(=O)N[C@@H](Cc1ccc(O)cc1)C(=O)N[C@@H](Cc1ccccc1)C(N)=O [Peptide P4-6, lYYF (SEQ ID NO: 1)-NH2] (H-[dL]YYF-NH2)
solubility [1, 3]: 4000 µg/mL (≈ 6.63 mM)

CC(C)C[C@H](N)C(=O)N[C@@H](Cc1ccc(O)cc1)C(=O)N[C@@H](Cc1ccc(O)cc1)C(=O)N[C@H](Cc1ccccc1)C(=O)O [Peptide P4-5, LYYf (SEQ ID NO: 1)] (H-LYY[dF]-OH; N-terminus assumed)
solubility ([1]; water, Solvent H2O, single solvent): 2500 µg/mL (≈ 4.13 mM)

CC(C)C[C@H](NC(=O)CN)C(=O)N[C@@H](Cc1ccc(O)cc1)C(=O)N[C@@H](Cc1ccc(O)cc1)C(=O)N[C@H](Cc1ccccc1)C(=O)O [Peptide P5-4, GLYYf (SEQ ID NO: 2)]
solubility [1, 4]: 3000 µg/mL (≈ 4.53 mM)

CC(C)C[C@H](NC(=O)CN)C(=O)N[C@@H](Cc1ccc(O)cc1)C(=O)N[C@H](Cc1ccc(O)cc1)C(=O)N[C@@H](Cc1ccccc1)C(N)=O [Peptide P5-8, GLYyF (SEQ ID NO: 2)-NH2]
solubility [1, 4]: 3000 µg/mL (≈ 4.54 mM)

CC(C)C[C@H](N)C(=O)N[C@@H](Cc1ccc(O)cc1)C(=O)N[C@@H](Cc1ccc(O)cc1)C(=O)N[C@H](Cc1ccccc1)C(N)=O [Peptide P4-9, LYYf (SEQ ID NO: 1)-NH2] (H-LYY[dF]-NH2)
solubility [1, 3]: 4000 µg/mL (≈ 6.63 mM)

CC(C)C[C@H](NC(=O)CN)C(=O)N[C@@H](Cc1ccc(O)cc1)C(=O)N[C@@H](Cc1ccc(O)cc1)C(=O)N[C@@H](Cc1ccccc1)C(=O)O [Peptide P5, GLYYF (SEQ ID NO: 2), reference compound]
solubility ([1]; ethanol : propylene glycol mixture, Solvent EtOH: PG (propylene glycol), mixed solvent): 1000 µg/mL (≈ 1.51 mM) | proportion of the region where hair was grown in the growth phase (C57BL/6 mice): increased
